# Target: T1, cloned human dopamine D3 receptors (Homo sapiens, UniProt P35462)
# T1 construct: expressed in transfected cells; membrane homogenate
# Experiment: [N-Methyl-3H]Spiroperidol binding to cloned human dopamine D3 receptors
# Conditions: read-out: D3 Ki
# Procedure, shortened: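 Stably transfected CHO cells expressing cloned human D3 receptor were used as membranes homogenized in 10% DMSO. Ligand was [N-methyl-3H]spiroperidol displacement.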
# T1 sequence (P35462 whole entry): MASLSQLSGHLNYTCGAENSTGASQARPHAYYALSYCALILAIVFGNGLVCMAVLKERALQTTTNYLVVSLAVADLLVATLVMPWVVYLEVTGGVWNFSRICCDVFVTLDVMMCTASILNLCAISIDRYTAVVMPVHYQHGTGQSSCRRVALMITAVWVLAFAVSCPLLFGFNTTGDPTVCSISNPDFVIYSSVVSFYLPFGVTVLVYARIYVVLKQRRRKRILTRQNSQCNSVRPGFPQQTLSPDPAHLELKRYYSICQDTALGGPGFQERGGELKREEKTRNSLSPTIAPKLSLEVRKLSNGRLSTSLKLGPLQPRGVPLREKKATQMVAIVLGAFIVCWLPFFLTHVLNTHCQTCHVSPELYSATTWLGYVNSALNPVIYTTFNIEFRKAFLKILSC
row,SMILES,Ki [nM]
1,O=C(NCCc1ccccc1Cl)C1CC1CN1CCC(c2noc3ccsc23)CC1 (racemic) [compound 831798],46.3
2,COc1ccc2c(c1)c(N1CCN(C[C@@H]3C[C@H]3C(=O)N3CCCC(Cn4ccnc4)C3)CC1)nn2C (mixture of isomers) [compound 834173],5.15
3,O=C(C1CC1CN1CCC(c2noc3ccsc23)CC1)N1CCC(n2ccnc2)CC1 (racemic) [compound 832193],13.1
4,O=C(NCCCN1CCCCC1)[C@@H]1C[C@H]1CN1CCC(c2nsc3cc(Br)ccc23)CC1 [A002329100],6.32
5,O=C(NCCCN1CCCCC1)[C@@H]1C[C@H]1CN1CCC(c2noc3cc(C(F)(F)F)ccc23)CC1 [A002287764],0.48
6,O=C([C@@H]1C[C@H]1CN1CCC(c2noc3ccsc23)CC1)N1CCC(Cc2ccccc2)CC1 [compound 831194],5.06
7,O=C(NC1CCN(Cc2cc(F)ccc2Cl)CC1)C1CC1CN1CCC(c2noc3ccsc23)CC1 (racemic) [compound 832346],12.9
8,O=C(NC1CCN(Cc2cccc(Cl)c2)CC1)[C@@H]1C[C@H]1CN1CCC(c2noc3ccsc23)CC1 [compound 832728],3.12
9,COc1c(F)ccc2c(C3CCN(C[C@@H]4C[C@H]4C(=O)N[C@H]4CC[C@H](O)CC4)CC3)noc12 [compound 831952],42.8
10,CCC(C)OC(=O)n1cc(C2CCN(C[C@@H]3C[C@H]3C(=O)N3CCC[C@@H](Cn4ccnc4)C3)CC2)c2ccc(C(F)(F)F)cc21 (some centres unmarked) [A002437355],1.87
11,O=C(C1CC1CN1CCC(c2noc3ccsc23)CC1)N1CCC(Oc2ccc(F)cc2)CC1 (racemic) [compound 829595],201
12,CC[C@H]1CC[C@H](NC(=O)[C@@H]2C[C@H]2CN2CCN(c3nn(C)c4ccc(OC)cc34)CC2)CC1 [832747ES],1.05
13,O=C(NCCCN1CCCCC1)[C@@H]1C[C@H]1CN1CCC(c2noc3c(C(F)(F)F)cccc23)CC1 [compound 832272],145
14,O=C([C@@H]1C[C@H]1CN1CCN(c2csc3cc(C(F)(F)F)ccc23)CC1)N1CCCC(Cn2ccnc2)C1 (mixture of isomers) [compound 832268],2.62
15,CCC1CCC(NC(=O)C2CC2CN2CCCN(c3onc4c3CCc3ccc(OC)cc3-4)CC2)CC1 (racemic) [compound 830131],34.1
16,COc1ccc2c(c1)c(N1CCN(C[C@@H]3C[C@H]3C(=O)N3CCN(C(C)C)CC3)CC1)nn2C [compound 833122],52.9
17,O=C(NCCCn1ccnc1)[C@@H]1C[C@H]1CN1CCC(c2noc3c(C(F)(F)F)cccc23)CC1 [compound 832274],52.4
18,O=C(NC1CCN(Cc2cc(F)ccc2F)CC1)[C@@H]1C[C@H]1CN1CCC(c2noc3ccsc23)CC1 [compound 833168],3.11
19,O=C(N[C@H]1CC[C@H](O)CC1)C1(CCN2CCN(c3csc4cc(C(F)(F)F)ccc34)CC2)CC1 [compound 832520],141
20,Cc1cccc(CN2CCC(NC(=O)[C@@H]3C[C@H]3CN3CCN(c4csc5cc(C(F)(F)F)ccc45)CC3)CC2)c1 [compound 832789],3.05
21,O=C(C1CC1CN1CCC(c2noc3ccsc23)CC1)N1CCN(Cc2ccc(F)cc2)CC1 (racemic) [compound 832164],6.6
22,O=C(NCCC1CCCCN1)[C@@H]1C[C@H]1CN1CCN(c2csc3cc(C(F)(F)F)ccc23)CC1 (mixture of isomers) [compound 832503],11.1
23,COc1ccc2c(c1)c(N1CCN(C[C@@H]3C[C@H]3C(=O)NCCCc3ccccc3)CC1)nn2-c1ccc(C(F)(F)F)cc1 [compound 831314],133
24,CN1CCC(N(C)C(=O)[C@@H]2C[C@H]2CN2CCN(c3csc4cc(C(F)(F)F)ccc34)CC2)CC1 [compound 832577],1.85

row,SMILES,Ki [nM]
1,CC1CCC(N2CC(CN3CCN(c4csc5cc(C(F)(F)F)ccc45)CC3)CC2=O)CC1 (racemic) [833953A],88.8
2,Cn1nc(C2CCN(C[C@@H]3C[C@H]3C(=O)NCCCc3cccnc3)CC2)c2cccc(C(F)(F)F)c21 [compound 833092],33.5
3,CCC1CCC(NC(=O)C2CC2CN2CCC(c3cc4cc(OC)cc(Br)c4o3)CC2)CC1 (racemic) [compound 830112],54
4,O=C(NCCCn1ccnc1)[C@@H]1C[C@H]1CN1CCN(c2csc3cc(Cl)ccc23)CC1 [compound 834172],0.837
5,O=C(NCCCN1CCOCC1)[C@@H]1C[C@H]1CN1CCN(c2csc3cc(C(F)(F)F)ccc23)CC1 [compound 831492],0.432
6,C[C@H]1CC[C@H](NC(=O)[C@@H]2C[C@H]2CN2CCC(c3n[nH]c4cc(C(F)(F)F)ccc34)CC2)CC1 [compound 833941],8.98
7,COc1ccc2[nH]nc(N3CCN(CC4CC4C(=O)NC4CCC(C)CC4)CC3)c2c1 (racemic) [compound 830439],17.6
8,CC(C)(C)OC(=O)N1CCC(CNC(=O)[C@@H]2C[C@H]2CN2CCC(c3noc4ccsc34)CC2)CC1 [compound 833375],24.2
9,O=C(NCCNC(=O)C1CC1CN1CCC(c2noc3ccsc23)CC1)OCc1ccccc1 (racemic) [compound 831649],173
10,CCC1CCC(NC(=O)C2CC2CN2CCN(CCc3ccccc3)CC2)CC1 (racemic) [compound 827237],153
11,O=C(NC1CCN(Cc2ccc(F)cc2F)CC1)[C@@H]1C[C@H]1CN1CCN(c2csc3cc(C(F)(F)F)ccc23)CC1 [compound 833516],21.7
12,Cn1nc(N2CCN(CCCC(=O)N[C@H]3CC[C@H](C)CC3)CC2)c2sccc21 [A002201941],119
13,COc1cc2c(cc1OC)CN(C(=O)[C@@H]1C[C@H]1CN1CCC(c3noc4ccsc34)CC1)CC2 [compound 831196],7.81
14,O=C([C@@H]1C[C@H]1CN1CCN(c2nc3cccc4c3n2CCC4)CC1)N1CCC(Cn2ccnc2)CC1 [A002437351],32.7
15,O=C(C1CC1CN1CCC(c2noc3ccsc23)CC1)N1CCN(c2ncccn2)CC1 (racemic) [compound 827394],391
16,CCC1CCC(NC(=O)C2CC2CN2CCN(C(=O)OC(C)(C)C)CC2)CC1 (racemic) [compound 827223],159
17,"C[C@H]1CC[C@H](NC(=O)[C@@H]2C[C@H]2CN2CCC(c3noc4ccc(C(F)(F)F)cc34)CC2)CC1 [compound 834012, 2R-[4-(5-Trifluoromethyl-benzo[d]isoxazol-3-yl)-piperidin-1-ylmethyl]-cyclopropane-1R-carboxylic acid trans-(4-methyl-cyclohexyl)-amide]",0.241
18,O=C(NC1CCN(Cc2cccc(C(F)(F)F)c2)CC1)C1CC1CN1CCC(c2noc3ccsc23)CC1 (racemic) [compound 831831],6.31
19,CC1CCC(NC(=O)C2CC2CN2CCC(Cc3ccccc3)CC2)CC1 (racemic) [compound 827209],30.4
20,COc1ccc2c(c1)c(N1CCN(C[C@@H]3C[C@H]3C(=O)NC3CCN(CC4CCCCC4)CC3)CC1)nn2C [compound 832743],2.36
21,O=C(NCCCc1ccn(S(=O)(=O)c2ccccc2)c1)C1CC1CN1CCC(c2noc3ccsc23)CC1 (racemic) [compound 832185],7.87
22,COc1ccc2c(c1)c(N1CCN(C[C@@H]3C[C@H]3C(=O)NC3CCN(CC4CC4)CC3)CC1)nn2C [compound 832744],1.37
23,O=C(NCCCn1ccnc1)C1(CCN2CCC(c3noc4ccsc34)CC2)CC1 [compound 832171],4.9

# From patent US7772252B2, “Heterocyclic substituted carbonyl derivatives and their use as dopamine D3 receptor ligands” (Aventis Pharmaceuticals Inc., priority 2001, dated 2010)
